Test results reported in US20240238423A9, “TETRAHYDROISOQUINOLINE HETEROBIFUNCTIONAL BCL-XL DEGRADERS” (Treeline Biosciences, Inc., priority 2022, published 2024).
Where two headings read alike, the source gives them in different places.

Target: T1, Human BCL-XL protein (N-terminal HiBiT tagged BCL-XL in HT1080 cells) (Homo sapiens, UniProt Q07817)
T1 construct: expressed in transfected cells; host or cells: HT-1080 (ATCC CCL-121), stably transduced with lentivirus pLV-UBC-N-HiBiT-BCL-XL-PGK-puro and selected with puromycin
T1 sequence (Q07817 whole entry): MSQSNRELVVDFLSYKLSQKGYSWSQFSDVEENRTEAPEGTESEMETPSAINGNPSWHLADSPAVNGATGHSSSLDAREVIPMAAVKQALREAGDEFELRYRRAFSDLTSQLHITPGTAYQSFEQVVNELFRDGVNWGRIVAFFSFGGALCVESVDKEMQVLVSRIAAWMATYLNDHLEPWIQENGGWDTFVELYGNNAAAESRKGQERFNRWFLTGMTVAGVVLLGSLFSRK
Assay: HiBiT based degradation assay
Assay type: cell-based
Settings: HT1080 cells expressing HiBiT-BCL-XL; for Ymin (6 h) / Ymin (24 h): BCL-XL degradation normalized with DMSO control; for DC50: BCL-XL degradation
Outline: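 HT1080 cells stably transduced by lentivirus with N-terminally HiBiT-tagged human BCL-XL and kept under 1 μg/mL puromycin selection were seeded at three thousand cells per well in 40 μL RPMI 1640 into 384-well plates pre-spotted with compounds across a concentration range. Luminescence was read on a PHERAstar FSX, normalized to DMSO, and fitted with a four-parameter logistic model.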

For `Cc1c(OCCCN2CCC(CC(=O)Nc3cccc4c(C5CCC(=O)NC5=O)nn(C)c34)CC2)cccc1-c1ccc(N2CCc3cccc(C(=O)Nc4nc5ccccc5s4)c3C2)nc1C(=O)O` (stereo not drawn) [Compound 122, 6-[8-(1,3-benzothiazol-2-ylcarbamoyl)-3,4-dihydro-1H-isoquinolin-2-yl]-3-[3-[3-[4-[2-[[3-(2,6-dioxo-3-piperidyl)-1-methyl-indazol-7-yl]amino]-2-oxo-ethyl]-1-piperidyl]propoxy]-2-methyl-phenyl]pyridine-2-carboxylic acid], the “Ymin (6 h)” value (6 h) was “B (50% ≤ Ymin < 70%)”, the “Ymin (24 h)” value (24 h) was “B (50% ≤ Ymin < 70%)” and the DC50 (6 h, read-out: EC50 (6 h)) was under 100 nM. For the same molecule, the DC50 (24 h, read-out: EC50 (24 h)) was under 100 nM.
In the case of `Cc1c(Oc2ccc(CCCNc3ccc4c(C5CCC(=O)NC5=O)nn(C)c4c3)cc2)cccc1-c1ccc(N2CCc3cccc(C(=O)Nc4nc5ccccc5s4)c3C2)nc1C(=O)O` (stereo not drawn) [Compound 123, 6-[8-(1,3-benzothiazol-2-ylcarbamoyl)-3,4-dihydro-1H-isoquinolin-2-yl]-3-[3-[4-[3-[[3-(2,6-dioxo-3-piperidyl)-1-methyl-indazol-6-yl]amino]propyl]phenoxy]-2-methyl-phenyl]pyridine-2-carboxylic acid], the “Ymin (6 h)” value (6 h) is reported as “C (Ymin ≥ 70%)” and the DC50 (6 h, read-out: EC50 (6 h)) is reported as 100 to 1000 nM.
With `Cc1c(O[C@H]2CC[C@H](CCC(=O)Nc3cccc4c(C5CCC(=O)NC5=O)nn(C)c34)CC2)cccc1-c1ccc(N2CCc3cccc(C(=O)Nc4nc5ccccc5s4)c3C2)nc1C(=O)O` (stereo partly drawn) [Compound 124a, 6-(8-(benzo[d]thiazol-2-ylcarbamoyl)-3,4-dihydroisoquinolin-2(1H)-yl)-3-(3-(((1r,4r)-4-(3-((3-(2,6-dioxopiperidin-3-yl)-1-methyl-1H-indazol-7-yl)amino)-3-oxopropyl)cyclohexyl)oxy)-2-methylphenyl)picolinic acid] the “Ymin (6 h)” value (6 h) was “C (Ymin ≥ 70%)”, the “Ymin (24 h)” value (24 h) was “C (Ymin ≥ 70%)” and the DC50 (6 h, read-out: EC50 (6 h)) was 1000 to 10000 nM. It also gave a DC50 (24 h, read-out: EC50 (24 h)) of under 100 nM.
In the case of `Cc1c(O[C@H]2CC[C@H](CCC(=O)Nc3ccc4c(C5CCC(=O)NC5=O)nn(C)c4c3)CC2)cccc1-c1ccc(N2CCc3cccc(C(=O)Nc4nc5ccccc5s4)c3C2)nc1C(=O)O` (stereo partly drawn) [Compound 125a, 6-(8-(benzo[d]thiazol-2-ylcarbamoyl)-3,4-dihydroisoquinolin-2(1H)-yl)-3-(3-(((1r,4r)-4-(3-((3-(2,6-dioxopiperidin-3-yl)-1-methyl-1H-indazol-6-yl)amino)-3-oxopropyl)cyclohexyl)oxy)-2-methylphenyl)picolinic acid], the “Ymin (6 h)” value (6 h) is reported as “C (Ymin ≥ 70%)”, the “Ymin (24 h)” value (24 h) is reported as “C (Ymin ≥ 70%)” and the DC50 (6 h, read-out: EC50 (6 h)) is reported as 1000 to 10000 nM. For the same molecule, the DC50 (24 h, read-out: EC50 (24 h)) was 1000 to 10000 nM.
For `Cn1nc(C2CCC(=O)NC2=O)c2ccc(NC(=O)CN3CCN(CCOc4cccc(-c5ccc(N6CCc7cccc(C(=O)Nc8nc9ccccc9s8)c7C6)nc5C(=O)O)c4C(F)(F)F)CC3)cc21` (stereo not drawn) [Compound 126, 6-(8-(benzo[d]thiazol-2-ylcarbamoyl)-3,4-dihydroisoquinolin-2(1H)-yl)-3-(3-(2-(4-(2-((3-(2,6-dioxopiperidin-3-yl)-1-methyl-1H-indazol-6-yl)amino)-2-oxoethyl)piperazin-1-yl)ethoxy)-2-(trifluoromethyl)phenyl)picolinic acid], the “Ymin (6 h)” value (6 h) was “B (50% ≤ Ymin < 70%)” and the DC50 (6 h, read-out: EC50 (6 h)) was 100 to 1000 nM.
`Cc1c(OCCCN2C[C@H]3CC[C@@H](C2)N3CC(=O)Nc2ccc3c(C4CCC(=O)NC4=O)nn(C)c3c2)cccc1-c1ccc(N2CCc3cccc(C(=O)Nc4nc5ccccc5s4)c3C2)nc1C(=O)O` (stereo partly drawn) [Compound 127, 6-(8-(benzo[d]thiazol-2-ylcarbamoyl)-3,4-dihydroisoquinolin-2(1H)-yl)-3-(3-(3-((1R,5S)-8-(2-((3-(2,6-dioxopiperidin-3-yl)-1-methyl-1H-indazol-6-yl)amino)-2-oxoethyl)-3,8-diazabicyclo[3.2.1]octan-3-yl)propoxy)-2-methylphenyl)picolinic acid] was tested, and the “Ymin (6 h)” value (6 h) was “B (50% ≤ Ymin < 70%)”, the “Ymin (24 h)” value (24 h) was “A (Ymin < 50%)” and the DC50 (6 h, read-out: EC50 (6 h)) was under 100 nM. It also gave a DC50 (24 h, read-out: EC50 (24 h)) of under 100 nM.
With `Cc1c(Oc2ccccc2CCCC(=O)Nc2cccc3c(C4CCC(=O)NC4=O)nn(C)c23)cccc1-c1ccc(N2CCc3cccc(C(=O)Nc4nc5ccccc5s4)c3C2)nc1C(=O)O` (stereo not drawn) [Compound 128, 6-(8-(benzo[d]thiazol-2-ylcarbamoyl)-3,4-dihydroisoquinolin-2(1H)-yl)-3-(3-(2-(4-((3-(2,6-dioxopiperidin-3-yl)-1-methyl-1H-indazol-7-yl)amino)-4-oxobutyl)phenoxy)-2-methylphenyl)picolinic acid] the “Ymin (6 h)” value (6 h) was “C (Ymin ≥ 70%)”, the “Ymin (24 h)” value (24 h) was “C (Ymin ≥ 70%)” and the DC50 (6 h, read-out: EC50 (6 h)) was 1000 to 10000 nM. For the same molecule, the DC50 (24 h, read-out: EC50 (24 h)) was under 100 nM.
`Cc1c(Oc2ccccc2CCCC(=O)Nc2ccc3c(C4CCC(=O)NC4=O)nn(C)c3c2)cccc1-c1ccc(N2CCc3cccc(C(=O)Nc4nc5ccccc5s4)c3C2)nc1C(=O)O` (stereo not drawn) [Compound 129, 6-(8-(benzo[d]thiazol-2-ylcarbamoyl)-3,4-dihydroisoquinolin-2(1H)-yl)-3-(3-(2-(4-((3-(2,6-dioxopiperidin-3-yl)-1-methyl-1H-indazol-6-yl)amino)-4-oxobutyl)phenoxy)-2-methylphenyl)picolinic acid] was tested, and the “Ymin (6 h)” value (6 h) was “C (Ymin ≥ 70%)”, the “Ymin (24 h)” value (24 h) was “C (Ymin ≥ 70%)” and the DC50 (6 h, read-out: EC50 (6 h)) was 1000 to 10000 nM. It also gave a DC50 (24 h, read-out: EC50 (24 h)) of under 100 nM.
With `Cc1c(CCCCN2CCN(CC(=O)Nc3ccc4c(C5CCC(=O)NC5=O)nn(C)c4c3)CC2)cccc1-c1ccc(N2CCc3cccc(C(=O)Nc4nc5ccccc5s4)c3C2)nc1C(=O)O` (stereo not drawn) [Compound 130, 6-[8-(1,3-Benzothiazol-2-ylcarbamoyl)-3,4-dihydro-1H-isoquinolin-2-yl]-3-[3-[4-[4-[2-[[3-(2,6-dioxo-3-piperidyl)-1-methyl-indazol-6-yl]amino]-2-oxo-ethyl]piperazin-1-yl]butyl]-2-methyl-phenyl]pyridine-2-carboxylic acid] the “Ymin (6 h)” value (6 h) was “A (Ymin < 50%)”, the “Ymin (24 h)” value (24 h) was “A (Ymin < 50%)” and the DC50 (6 h, read-out: EC50 (6 h)) was under 100 nM. The DC50 (24 h, read-out: EC50 (24 h)) was under 100 nM.
In the case of `Cc1c(OCCCN2[C@H](C)CN(CC(=O)Nc3ccc4c(C5CCC(=O)NC5=O)nn(C)c4c3)C[C@@H]2C)cccc1-c1ccc(N2CCc3cccc(C(=O)Nc4nc5ccccc5s4)c3C2)nc1C(=O)O` (stereo partly drawn) [Compound 131a, 6-[8-(1,3-benzothiazol-2-ylcarbamoyl)-3,4-dihydro-1H-isoquinolin-2-yl]-3-[3-[3-[(2R,6S)-4-[2-[[3-(2,6-dioxo-3-piperidyl)-1-methyl-indazol-6-yl]amino]-2-oxo-ethyl]-2,6-dimethyl-piperazin-1-yl]propoxy]-2-methyl-phenyl]pyridine-2-carboxylic acid], the “Ymin (6 h)” value (6 h) is reported as “A (Ymin < 50%)”, the “Ymin (24 h)” value (24 h) is reported as “A (Ymin < 50%)” and the DC50 (6 h, read-out: EC50 (6 h)) is reported as under 100 nM. The DC50 (24 h, read-out: EC50 (24 h)) was under 100 nM.
For `Cc1c(Oc2ccc(CCCC(=O)Nc3ccc4c(C5CCC(=O)NC5=O)nn(C)c4c3)cc2)cccc1-c1ccc(N2CCc3cccc(C(=O)Nc4nc5ccccc5s4)c3C2)nc1C(=O)O` (stereo not drawn) [Compound 132, 6-(8-(benzo[d]thiazol-2-ylcarbamoyl)-3,4-dihydroisoquinolin-2(1H)-yl)-3-(3-(4-(4-((3-(2,6-dioxopiperidin-3-yl)-1-methyl-1H-indazol-6-yl)amino)-4-oxobutyl)phenoxy)-2-methylphenyl)picolinic acid], the “Ymin (6 h)” value (6 h) was “C (Ymin ≥ 70%)”, the “Ymin (24 h)” value (24 h) was “B (50% ≤ Ymin < 70%)” and the DC50 (6 h, read-out: EC50 (6 h)) was 1000 to 10000 nM. The DC50 (24 h, read-out: EC50 (24 h)) was 100 to 1000 nM.
In the case of `Cc1c(OCCCN2CCN(CCCOc3ccc4c(C5CCC(=O)NC5=O)nn(C)c4c3)CC2)cccc1-c1ccc(N2CCc3cccc(C(=O)Nc4nc5ccccc5s4)c3C2)nc1C(=O)O` (stereo not drawn) [Compound 133, 6-(8-(Benzo[d]thiazol-2-ylcarbamoyl)-3,4-dihydroisoquinolin-2(1H)-yl)-3-(3-(3-(4-(3-((3-(2,6-dioxopiperidin-3-yl)-1-methyl-1H-indazol-6-yl)oxy)propyl)piperazin-1-yl)propoxy)-2-methylphenyl)picolinic acid], the “Ymin (6 h)” value (6 h) is reported as “A (Ymin < 50%)”, the “Ymin (24 h)” value (24 h) is reported as “A (Ymin < 50%)” and the DC50 (6 h, read-out: EC50 (6 h)) is reported as under 100 nM. It also gave a DC50 (24 h, read-out: EC50 (24 h)) of under 100 nM.
With `Cc1c(Oc2ccccc2CCC(=O)Nc2ccc(C3CCC(=O)NC3=O)cc2)cccc1-c1ccc(N2CCc3cccc(C(=O)Nc4nc5ccccc5s4)c3C2)nc1C(=O)O` (stereo not drawn) [Compound 134, 6-(8-(benzo[d]thiazol-2-ylcarbamoyl)-3,4-dihydroisoquinolin-2(1H)-yl)-3-(3-(2-(3-((4-(2,6-dioxopiperidin-3-yl)phenyl)amino)-3-oxopropyl)phenoxy)-2-methylphenyl)picolinic acid] the “Ymin (6 h)” value (6 h) was “B (50% ≤ Ymin < 70%)”, the “Ymin (24 h)” value (24 h) was “B (50% ≤ Ymin < 70%)” and the DC50 (6 h, read-out: EC50 (6 h)) was 100 to 1000 nM. It also gave a DC50 (24 h, read-out: EC50 (24 h)) of under 100 nM.
`Cc1c(-c2ccc(N3CCc4cccc(C(=O)Nc5nc6ccccc6s5)c4C3)nc2C(=O)NCC(=O)Nc2ccc3c(C4CCC(=O)NC4=O)nn(C)c3c2)cnn1Cc1ccccc1` (stereo not drawn) [Compound 135, N-(1,3-benzothiazol-2-yl)-2-[5-(1-benzyl-5-methyl-pyrazol-4-yl)-6-[[2-[[3-(2,6-dioxo-3-piperidyl)-1-methyl-indazol-6-yl]amino]-2-oxo-ethyl]carbamoyl]-2-pyridyl]-3,4-dihydro-1H-isoquinoline-8-carboxamide] was tested, and the “Ymin (6 h)” value (6 h) was “B (50% ≤ Ymin < 70%)” and the DC50 (6 h, read-out: EC50 (6 h)) was under 100 nM.
For `Cc1c(OCCCN2CCN(CCOc3ccc4c(C5CCC(=O)NC5=O)nn(C)c4c3)CC2)cccc1-c1ccc(N2CCc3cccc(C(=O)Nc4nc5ccccc5s4)c3C2)nc1C(=O)O` (stereo not drawn) [Compound 136, 6-(8-(benzo[d]thiazol-2-ylcarbamoyl)-3,4-dihydroisoquinolin-2(1H)-yl)-3-(3-(3-(4-(2-((3-(2,6-dioxopiperidin-3-yl)-1-methyl-1H-indazol-6-yl)oxy)ethyl)piperazin-1-yl)propoxy)-2-methylphenyl)picolinic acid], the “Ymin (6 h)” value (6 h) was “B (50% ≤ Ymin < 70%)”, the “Ymin (24 h)” value (24 h) was “B (50% ≤ Ymin < 70%)” and the DC50 (6 h, read-out: EC50 (6 h)) was 100 to 1000 nM. It also gave a DC50 (24 h, read-out: EC50 (24 h)) of under 100 nM.
